According to patent US8258151B2, “3-aminoimidazo [1,2-A] pyridine derivatives as SGLT inhibitors” (Merck Patent GmbH, priority 2006, dated 2012):

Legend:
SGLT1 = target: T1, SGLT1 (Homo sapiens, UniProt P13866); test: SGLT1 activity measurement: 14C-AMG uptake in BHK cells transfected with SGLT1; format: cell-based; conditions: AMG 50 μM, 37° C., 90 min
T1 construct: expressed in transfected cells
T1 sequence (P13866 1-664): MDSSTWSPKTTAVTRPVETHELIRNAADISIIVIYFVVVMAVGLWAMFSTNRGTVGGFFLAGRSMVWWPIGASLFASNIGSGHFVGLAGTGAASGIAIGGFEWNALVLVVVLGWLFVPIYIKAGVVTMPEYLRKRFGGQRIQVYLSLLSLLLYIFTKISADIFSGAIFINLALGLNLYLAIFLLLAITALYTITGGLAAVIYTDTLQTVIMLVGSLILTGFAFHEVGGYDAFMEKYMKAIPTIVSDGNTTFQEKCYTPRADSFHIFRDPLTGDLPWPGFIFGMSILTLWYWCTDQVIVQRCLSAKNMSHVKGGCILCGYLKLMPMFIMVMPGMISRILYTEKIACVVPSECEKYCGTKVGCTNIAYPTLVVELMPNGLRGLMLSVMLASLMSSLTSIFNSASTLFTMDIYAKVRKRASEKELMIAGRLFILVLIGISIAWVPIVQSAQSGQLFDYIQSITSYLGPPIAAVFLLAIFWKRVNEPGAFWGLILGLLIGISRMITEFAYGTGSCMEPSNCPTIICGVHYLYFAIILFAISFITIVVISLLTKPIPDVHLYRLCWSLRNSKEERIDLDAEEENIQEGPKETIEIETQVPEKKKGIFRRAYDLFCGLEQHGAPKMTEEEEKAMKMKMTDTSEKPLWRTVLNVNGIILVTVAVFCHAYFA
From the text: (§1) The compounds can be tested on their SGLT inhibition properties by means of BHK cells expressing SGLT1 and SGLT2. The production of the cells and the testing can be carried out as described below.
To construct the SGLT1 expression vector (KL225), the SLC5A1 gene (homologous to NM_000343) was amplified from a cDNA library using standard PCR technology and cloned over NheI/XhoI sites into pcDNA3.1 expression vector (Invitrogen) containing neomycin as a selection marker. In this vector, transcription uses the enhancer/promoter of human cytomegalovirus.
The final vector KL225 together with an additional vector containing a dihydrofolate reductase gene as a selection marker was introduced into cells. Transfection into BHK21 cells (ATCC CCL-10), cultivated in DMEM medium (GIBCO/BRL), supplemented with 10% foetal calf serum (FCS) and 20 mM glutamine, was carried out using calcium phosphate transfections according to Graham, F. L. and van der Ebb, A. J. (1973), Virology 52: 456 with 5-20 μg of uncut plasmids for 10^7 cells. Stable transfectants were selected in medium containing 1 mg/ml of G418 (GIBCO/BRL) and 20-5000 nM methotrexate as final concentration, where only cells which expressed the neomycin gene and overexpressed the dhfr gene were able to grow. After growth for 2-3 weeks, the cells were cloned (0.5 cells/well) and the clones were investigated for SGLT expression in the radioactive uptake assay. […]
(§2) A 96-well cell-based assay was developed and adapted to HTS requirements:
(§3) BHK cells (transfected with SGLT1 or SGLT2) were seeded into 96-well microtitre plates (Cultureplates, Perkin Elmer). After at least 24 h, medium was removed and the cell layer was washed with assay buffer (140 mM NaCl, 2 mM KCl, 1 mM CaCl2, 1 mM MgCl2, 10 mM HEPES, 5 mM Tris, adjusted with 1 M KOH to pH 7.4). After addition of 40 μl of assay buffer, 50 μl of AMG (50 μM for SGLT1 and 2 mM for SGLT2) in the presence or absence of compounds, the cells were incubated in a total volume of 100 μl at 37° C. for 90 min. Supernatant was removed by suction and discarded. The cells were washed and lysed by addition of 50 μl water. After 10 minutes at room temperature 200 μl Microscint 40 (Perkin Elmer) were added. The radioactivity was counted in a Topcount microplate scintillation counter (Perkin Elmer). The non-specific uptake was determined in sodium-free assay buffer (266 mM sucrose, 2 mM KCl, 1 mM CaCl2, 1 mM MgCl2, 10 mM HEPES, 5 mM Tris, adjusted with 1 M KOH to pH 7.4).

SGLT2 = target: T2, SGLT2 (Homo sapiens, UniProt P31639); test: SGLT2 activity measurement: 14C-AMG uptake in BHK cells transfected with SGLT2; format: cell-based; conditions: AMG 2 mM, 37° C., 90 min
T2 construct: expressed in transfected cells
T2 sequence (P31639 1-672): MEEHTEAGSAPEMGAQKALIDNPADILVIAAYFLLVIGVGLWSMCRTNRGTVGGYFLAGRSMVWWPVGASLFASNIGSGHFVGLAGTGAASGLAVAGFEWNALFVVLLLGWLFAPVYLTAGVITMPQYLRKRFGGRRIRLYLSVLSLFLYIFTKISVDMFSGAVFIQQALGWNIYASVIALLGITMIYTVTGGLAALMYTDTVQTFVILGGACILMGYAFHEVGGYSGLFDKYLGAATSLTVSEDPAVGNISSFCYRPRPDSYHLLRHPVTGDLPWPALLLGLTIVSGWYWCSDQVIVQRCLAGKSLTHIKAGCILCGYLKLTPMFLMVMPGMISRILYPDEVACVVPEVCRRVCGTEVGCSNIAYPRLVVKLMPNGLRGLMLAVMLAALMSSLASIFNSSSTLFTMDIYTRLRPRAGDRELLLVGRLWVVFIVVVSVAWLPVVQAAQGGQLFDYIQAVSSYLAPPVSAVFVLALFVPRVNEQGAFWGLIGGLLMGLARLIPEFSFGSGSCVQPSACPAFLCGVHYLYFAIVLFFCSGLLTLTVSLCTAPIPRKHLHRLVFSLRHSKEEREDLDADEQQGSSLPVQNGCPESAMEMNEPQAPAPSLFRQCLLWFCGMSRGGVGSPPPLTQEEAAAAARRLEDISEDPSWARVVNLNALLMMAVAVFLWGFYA
From the text: as §1
To construct the SGLT2 expression vector (KL224), the SLC5A2 gene (homologous to NM_003041) was amplified from a cDNA library using standard PCR technology and cloned over NheI/XhoI sites into PCI-neo expression vector (Promega) containing neomycin as a selection marker. In this vector, transcription used the enhancer/promoter of human cytomegalovirus and the SV40 polyadenylation signal.
The final vector KL224 together with an additional vector containing a dihydrofolate reductase gene as a selection marker was introduced into cells. Transfection into BHK21 cells (ATCC CCL-10), cultivated in DMEM medium (GIBCO/BRL), supplemented with 10% foetal calf serum (FCS) and 20 mM glutamine, was carried out using calcium phosphate transfections according to Graham, F. L. and van der Ebb, A. J. (1973), Virology 52: 456 with 5-20 μg of uncut plasmids for 10^7 cells. Stable transfectants were selected in medium containing 1 mg/ml of G418 (GIBCO/BRL) and 20-5000 nM methotrexate as final concentration, where only cells which expressed the neomycin gene and overexpressed the dhfr gene were able to grow. After growth for 2-3 weeks, the cells were cloned (0.5 cells/well) and the clones were investigated for SGLT expression in the radioactive uptake assay.
Principally, uptake of ^14C-α-methyl-D-glucopyranoside (AMG) in, for example, Xenopus oocytes injected with the corresponding cRNA has been described (for example Wen-Sen Lee et al. (1994), J. Biol. Chem. 269, 12032-12039; Guofeng You et al. (1995), J. Biol. Chem. 270, 29365-29371).
as §2, §3

| IC50 (SGLT1) | IC50 (SGLT2) | SMILES |
| --- | --- | --- |
| 1000 to 10000 nM | 10 to 1000 nM | COc1ccc(-c2nc3ccccn3c2Nc2c(C)cccc2Cl)c(OCC(N)=O)c1 [Compound A15, 2-[2-(Aminocarbonylmethoxy)-4-methoxy-phenyl]-3-(2-chloro-6-methylphenylamino)-imidazo[1,2-a]pyridine] |
| 1000 to 10000 nM | 10 to 1000 nM | COc1ccc(-c2nc3ccccn3c2Nc2c(Cl)cccc2Cl)c(OCC(N)=O)c1 [Compound A16, 2-[2-(Aminocarbonylmethoxy)-4-methoxy-phenyl]-3-(2,6-dichlorophenylamino)imidazo-[1,2-a]pyridine] |
| > 10000 nM | 10 to 1000 nM | Cc1ccc(-c2nc3ccccn3c2Nc2c(C)cccc2C)c(OCC(N)=O)c1 [Compound A17, 2-[2-(Aminocarbonylmethoxy)-4-methylphenyl]-3-(2,6-dimethylphenylamino)-imidazo[1,2-a]-pyridine] |
| 1000 to 10000 nM | 10 to 1000 nM | CCc1cc(O)cc(OCC(N)=O)c1-c1nc2ccc(F)cn2c1Nc1c(C)cccc1C [Compound A102, 2-[2-(Aminocarbonylmethoxy)-6-ethyl-4-hydroxy-phenyl]-3-(2,6-dimethylphenylamino)-6-fluoro-imidazo[1,2-a]pyridine] |
| > 10000 nM | 10 to 1000 nM | CCc1cc(OC2CCCCO2)cc(OCC(N)=O)c1-c1nc2ccccn2c1Nc1c(C)cccc1C (centres unmarked) [Compound A166, 2-[2-(Aminocarbonylmethoxy)-4-(tetra-hydropyran-2-yloxy)-6-ethylphenyl]-3-(2,6-dimethylphenylamino)imidazo[1,2-a]pyridine] |
| > 10000 nM | 10 to 1000 nM | CCc1cc(OCC(N)=O)cc(OCC(N)=O)c1-c1nc2ccccn2c1Nc1c(C)cccc1C [Compound A167, 2-[2-(Aminocarbonylmethoxy)-4-(amino-carbonylmethoxy)-6-ethylphenyl]-3-(2,6-dimethylphenylamino)imidazo[1,2-a]pyridine] |
| > 10000 nM | 10 to 1000 nM | Cc1cc(C)c(-c2nc3ccccn3c2Nc2c(C)cccc2C)c(OCC(N)=O)c1 [Compound A168, 2-[2-(Aminocarbonylmethoxy)-4,6-dimethyl-phenyl]-3-(2,6-dimethylphenylamino)imidazo-[1,2-a]pyridine] |
| 1000 to 10000 nM | 10 to 1000 nM | Cc1cc(C)c(-c2nc3ccc(F)cn3c2Nc2c(C)cccc2C)c(OCC(N)=O)c1 [Compound A169, 2-[2-(Aminocarbonylmethoxy)-4,6-dimethyl-phenyl]-3-(2,6-dimethylphenylamino)-6-fluoro-imidazo[1,2-a]pyridine] |
| 1000 to 10000 nM | 10 to 1000 nM | Cc1cccc(C)c1Nc1c(-c2c(C)cc(OCC(N)=O)cc2OCC(N)=O)nc2ccccn12 [Compound A170, 2-[2-(Aminocarbonylmethoxy)-4-(amino-carbonylmethoxy)-6-methylphenyl]-3-(2,6-dimethylphenylamino)imidazo[1,2-a]pyridine] |
| > 10000 nM | 10 to 1000 nM | Cc1cccc(C)c1Nc1c(-c2c(C)cc(O)cc2OCC(N)=O)nc2ccccn12 [Compound A171, 2-[2-(Aminocarbonylmethoxy)-4-hydroxy-6-methylphenyl]-3-(2,6-dimethylphenylamino)-imidazo[1,2-a]pyridine] |
| > 10000 nM | 10 to 1000 nM | COc1cc(C)c(-c2nc3ccccn3c2Nc2c(C)cccc2C)c(OCC(N)=O)c1 [Compound A172, 2-[2-(Aminocarbonylmethoxy)-4-methoxy-6-methylphenyl]-3-(2,6-dimethylphenylamino)-imidazo[1,2-a]pyridine] |
| > 10000 nM | > 10000 nM | Cc1cccc(C)c1Nc1c(-c2c(C)cc(OCc3ccccc3)cc2OCC(N)=O)nc2ccccn12 [Compound A173, 2-[2-(Aminocarbonylmethoxy)-4-benzyloxy-6-methylphenyl]-3-(2,6-dimethylphenylamino)-imidazo[1,2-a]pyridine] |
| > 10000 nM | 10 to 1000 nM | CCc1cccc(C)c1Nc1c(-c2ccccc2OCC(N)=O)nc2ccc(F)cn12 [Compound A174, 2-[2-(Aminocarbonylmethoxy)phenyl]-3-(2-methyl-6-ethylphenylamino)-6-fluoroimidazo-[1,2-a]pyridine] |
| > 10000 nM | 10 to 1000 nM | Cc1cccc(C)c1Nc1c(-c2c(O)cccc2OCC(N)=O)nc2ccc(F)cn12 [Compound A175, 2-[2-(Aminocarbonylmethoxy)-6-hydroxyphenyl]-3-(2,6-dimethylphenylamino)-6-fluoroimidazo-[1,2-a]pyridine] |
| > 10000 nM | 1000 to 10000 nM | Cc1cccc(C)c1Nc1c(-c2c(O)cccc2OCC(N)=O)nc2ccccn12 [Compound A176, 2-[2-(Aminocarbonylmethoxy)-6-hydroxyphenyl]-3-(2,6-dimethylphenylamino)imidazo[1,2-a]-pyridine] |
| > 10000 nM | 10 to 1000 nM | Cc1cccc(C)c1Nc1c(-c2c(C)cc(OC3CCCCO3)cc2OCC(N)=O)nc2ccc(F)cn12 (centres unmarked) [Compound A177, 2-[2-(Aminocarbonylmethoxy)-4-(tetra-hydropyran-2-yloxy)-6-methylphenyl]-3-(2,6-dimethylphenylamino)-6-fluoroimidazo[1,2-a]-pyridine] |
